Here are results for seven compounds from patent US9359317B2, “Small molecule inhibitors of HIV proteases” (Purdue Research Foundation, priority 2008, dated 2016).

pKi: −log10 of the molar value.

In the first assay the target is HIV Protease (Human immunodeficiency virus type 1 group M subtype B, UniProt P04585). The experiment in a line: Inhibition of HIV Protease. In kind it is biochemical. The conditions noted are these: Table 1, Inhibition of HIV Protease by compounds of formula drawing 46.
`C=CCC1OC(c2ccccc2)CC1C(NS(=O)(=O)c1ccc(F)cc1)C(=O)O` (stereo not shown) [compound 18] showed a negative logarithm of the Ki (pKi) of less than 6.00.

Consider `Cc1ccc(S(=O)(=O)NC(C(=O)O)C2CC(c3ccccc3)OC2CC(O)c2ccccc2)cc1` (stereo not shown) [compound 21], for which the pKi was 8.40.

As to `Cc1ccc(S(=O)(=O)NC(C(=O)O)C2CC(c3ccccc3)OC2CC(O)CO)cc1` (stereo not shown) [compound 22], the pKi was 7.57.

Regarding `C=CCC1OC(c2ccccc2)CC1C(NS(=O)(=O)c1ccc(C)cc1)C(=O)O` (stereo not shown) [compound 25], the pKi was less than 6.00.

In turn, `Cc1ccc(S(=O)(=O)NC(C(=O)O)C2CC(c3ccc4ccccc4c3)OC2CC(O)c2ccccc2)cc1` (stereo not shown) [compound 26] showed a pKi of 6.82.

`CC=CC1OC(c2ccccc2)CC1C(NS(=O)(=O)c1ccc(C)cc1)C(=O)O` (stereo not shown) [compound 33] showed a pKi of less than 6.00.

Staying with this assay, now noted: Table 2, Inhibition of HIV Protease.
For `COc1ccc(S(=O)(=O)NC(C(=O)O)C2CC3Cc4cc(OC)ccc4C2O3)cc1` (stereo not shown) [compound 2], the pKi was less than 6.00.

What is called pKi is the Ki on a negative log10 scale, so that one unit is a factor of ten.
